Patent publication US10392368B2, “Pyrazolo and triazolo bicyclic compounds as JAK kinase inhibitors” (THERAVANCE BIOPHARMA R&D IP, LLC, priority 2017, dated 2019)

What was measured:
JAK1 = biological target: T1, JAK1 (Homo sapiens, UniProt P23458); assay: Biochemical JAK1 kinase assay (LanthaScreen); settings: for Ki: read-out: JAK 1 (pKi) (converted)
T1 construct: GST; purchased Life Technologies
Summary of the method: (§1)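 TR-FRET readout (520/495 nm) using Tb-labelled pTyr701 antibody after EDTA stop, following 1 h ATP-started phosphorylation of GFP-STAT1 by recombinant GST-JAK. Compounds preincubated 1 h with enzyme and substrate; pIC50 from 4-parameter fit, Cheng-Prusoff gives pKi.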

[1] = tested on: IL-2 stimulated pSTAT5 in Tall-1 T cells; assay: Cellular JAK3 potency assay: inhibition of IL-2 stimulated pSTAT5 in Tall-1 T cells; format: cell-based, human; settings: for IC50: Homo sapiens, TALL-1, IL-2 stimulated pSTAT5 in Tall-1 T cells, read-out: Tall-1 (pIC50) (converted)
Summary of the method: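 Tall-1 human T cells (45,000/well) in phenol red-free DMEM with 10% FBS were preincubated with compound 1 h at 37 °C, then stimulated with IL-2 (final 300 ng/ml) for 30 min. Lysate pSTAT5 read by AlphaLisa; IC50 from inhibition curves, reported as pIC50 (mean±SD).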

[2] = tested on: oxazolone-induced colitis; assay: Mouse model of oxazolone-induced colitis; format: in vivo
Description: Oxazolone-induced colitis is an experimental model that has a histological resemblance to human ulcerative colitis (Heller et al. Immunology, 2002, 17, 629-638). Adult BALB/C mice from Harlan were used in the assay. On day 1, animals were lightly anesthetized with isoflurane and the hairs between the shoulder were carefully removed before oxazolone (4%, 150 μL, 4:1 acetone:olive oil formulation) or vehicle solution was slowly applied for skin sensitization. Seven days after skin sensitization, the mice were fasted around 6 hours prior, anesthetized with ketamine/xylazine injection, and a 1 mL syringe equipped with a 3.5-F catheter, filled with oxazolone solution, was inserted carefully about 4 cm into the colon of the mouse. Following insertion, 50 μL of the oxazolone solution (0.8% in 1:1 ethanol:water formulation) was injected very slowly (over 30 sec using an injection pump) into the colon. Drug treatment (PO, QD or BID or TID) or vehicle was initiated a day prior to the oxazolone intrarectal (IR) challenge. Two-day post oxazolone intrarectal challenge, the disease was assessed by treatment-blinded experimenters for each mouse according to the criteria score: stool consistency score (0, normal; 2, loose; 4, diarrhea), gross bleeding score (0, absence; 2, blood tinged; 4, presence); Combined stool score endpoint=stool consistency score+stool blood score.
Select compounds were tested in the assay.

JAK2 = biological target: T2, JAK2 (Homo sapiens, UniProt O60674); assay: Biochemical JAK2 kinase assay (LanthaScreen); settings: for Ki: read-out: JAK 2 (pKi) (converted)
T2 construct: GST; purchased Life Technologies
T2 sequence (O60674 whole entry): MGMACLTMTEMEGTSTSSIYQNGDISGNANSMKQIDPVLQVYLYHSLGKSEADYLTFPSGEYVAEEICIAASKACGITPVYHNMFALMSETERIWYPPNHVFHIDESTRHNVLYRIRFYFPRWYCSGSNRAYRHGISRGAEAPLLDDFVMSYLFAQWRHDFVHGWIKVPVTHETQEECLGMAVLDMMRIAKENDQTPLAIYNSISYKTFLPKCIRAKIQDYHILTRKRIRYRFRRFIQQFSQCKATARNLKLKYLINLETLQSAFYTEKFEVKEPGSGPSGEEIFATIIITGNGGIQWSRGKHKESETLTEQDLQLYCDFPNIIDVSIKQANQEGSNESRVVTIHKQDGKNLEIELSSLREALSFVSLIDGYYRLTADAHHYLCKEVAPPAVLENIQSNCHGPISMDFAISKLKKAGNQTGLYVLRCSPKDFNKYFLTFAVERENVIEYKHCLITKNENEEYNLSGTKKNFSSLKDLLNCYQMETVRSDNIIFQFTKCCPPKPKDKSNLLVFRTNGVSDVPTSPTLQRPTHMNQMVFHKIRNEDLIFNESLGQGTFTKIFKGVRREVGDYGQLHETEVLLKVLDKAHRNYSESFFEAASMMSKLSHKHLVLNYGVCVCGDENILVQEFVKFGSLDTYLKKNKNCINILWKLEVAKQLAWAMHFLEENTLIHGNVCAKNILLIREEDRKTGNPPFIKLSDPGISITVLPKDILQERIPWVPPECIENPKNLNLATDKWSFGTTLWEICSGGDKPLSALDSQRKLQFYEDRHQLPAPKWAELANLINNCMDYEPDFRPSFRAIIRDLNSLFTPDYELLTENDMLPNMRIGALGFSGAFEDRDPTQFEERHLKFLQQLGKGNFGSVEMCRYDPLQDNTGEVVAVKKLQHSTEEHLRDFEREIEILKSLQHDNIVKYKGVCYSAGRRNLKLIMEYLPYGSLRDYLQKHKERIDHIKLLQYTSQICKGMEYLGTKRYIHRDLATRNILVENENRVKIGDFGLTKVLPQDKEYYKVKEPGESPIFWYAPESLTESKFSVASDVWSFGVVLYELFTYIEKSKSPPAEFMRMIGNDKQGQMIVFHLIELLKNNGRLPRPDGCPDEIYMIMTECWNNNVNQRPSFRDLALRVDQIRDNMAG
Summary of the method: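 GST-tagged recombinant JAK2 pre-incubated 1 h at ambient temperature with compound and GFP-STAT1 peptide in HEPES pH 7.5/MgCl2 buffer, then ATP added for a 1 h reaction with 1% DMSO. TR-FRET read after EDTA and Tb-anti-pSTAT1 (pTyr701) addition; IC50 from 4-parameter fit, converted to pKi by Cheng-Prusoff.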

JAK3 = biological target: T3, JAK3 (Homo sapiens, UniProt P52333); assay: Biochemical JAK3 kinase assay (LanthaScreen); parameters: GST; purchased Life Technologies; settings: for Ki: read-out: JAK 3 (pKi) (converted)
T3 sequence (P52333 1-1124): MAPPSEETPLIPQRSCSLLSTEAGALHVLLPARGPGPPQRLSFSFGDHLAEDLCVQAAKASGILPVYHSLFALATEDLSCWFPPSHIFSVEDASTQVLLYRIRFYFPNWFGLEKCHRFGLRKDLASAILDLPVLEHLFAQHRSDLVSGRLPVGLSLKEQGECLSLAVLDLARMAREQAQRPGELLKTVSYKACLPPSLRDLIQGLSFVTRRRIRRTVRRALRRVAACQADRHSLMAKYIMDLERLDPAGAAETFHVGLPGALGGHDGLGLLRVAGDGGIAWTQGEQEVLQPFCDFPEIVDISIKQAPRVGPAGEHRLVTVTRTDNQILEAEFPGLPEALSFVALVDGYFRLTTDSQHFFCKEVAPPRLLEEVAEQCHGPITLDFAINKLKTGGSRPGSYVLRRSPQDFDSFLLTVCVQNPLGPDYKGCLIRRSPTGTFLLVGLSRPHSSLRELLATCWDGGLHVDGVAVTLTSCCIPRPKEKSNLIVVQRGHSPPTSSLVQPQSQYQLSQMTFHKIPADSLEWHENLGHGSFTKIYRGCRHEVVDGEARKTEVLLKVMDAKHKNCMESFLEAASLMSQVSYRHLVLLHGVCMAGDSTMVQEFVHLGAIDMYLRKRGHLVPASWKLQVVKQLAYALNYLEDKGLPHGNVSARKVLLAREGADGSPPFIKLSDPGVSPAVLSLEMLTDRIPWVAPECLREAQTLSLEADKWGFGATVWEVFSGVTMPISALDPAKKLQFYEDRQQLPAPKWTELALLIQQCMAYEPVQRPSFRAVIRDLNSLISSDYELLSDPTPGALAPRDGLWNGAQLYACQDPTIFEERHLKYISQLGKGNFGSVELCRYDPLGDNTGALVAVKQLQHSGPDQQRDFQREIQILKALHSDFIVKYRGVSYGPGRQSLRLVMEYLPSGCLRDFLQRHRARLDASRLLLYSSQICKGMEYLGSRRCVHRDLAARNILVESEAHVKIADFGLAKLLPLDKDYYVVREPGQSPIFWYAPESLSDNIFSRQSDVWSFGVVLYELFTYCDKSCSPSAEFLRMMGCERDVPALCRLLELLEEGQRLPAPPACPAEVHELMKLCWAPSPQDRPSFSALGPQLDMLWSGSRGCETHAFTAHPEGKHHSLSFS
Summary of the method: as §1

Tyk2 = biological target: T4, Tyk2 (Homo sapiens, UniProt P29597); assay: Biochemical Tyk2 kinase assay (LanthaScreen); settings: for Ki: read-out: Tyk 2 (pKi) (converted)
T4 construct: GST; purchased Life Technologies
T4 sequence (P29597 whole entry): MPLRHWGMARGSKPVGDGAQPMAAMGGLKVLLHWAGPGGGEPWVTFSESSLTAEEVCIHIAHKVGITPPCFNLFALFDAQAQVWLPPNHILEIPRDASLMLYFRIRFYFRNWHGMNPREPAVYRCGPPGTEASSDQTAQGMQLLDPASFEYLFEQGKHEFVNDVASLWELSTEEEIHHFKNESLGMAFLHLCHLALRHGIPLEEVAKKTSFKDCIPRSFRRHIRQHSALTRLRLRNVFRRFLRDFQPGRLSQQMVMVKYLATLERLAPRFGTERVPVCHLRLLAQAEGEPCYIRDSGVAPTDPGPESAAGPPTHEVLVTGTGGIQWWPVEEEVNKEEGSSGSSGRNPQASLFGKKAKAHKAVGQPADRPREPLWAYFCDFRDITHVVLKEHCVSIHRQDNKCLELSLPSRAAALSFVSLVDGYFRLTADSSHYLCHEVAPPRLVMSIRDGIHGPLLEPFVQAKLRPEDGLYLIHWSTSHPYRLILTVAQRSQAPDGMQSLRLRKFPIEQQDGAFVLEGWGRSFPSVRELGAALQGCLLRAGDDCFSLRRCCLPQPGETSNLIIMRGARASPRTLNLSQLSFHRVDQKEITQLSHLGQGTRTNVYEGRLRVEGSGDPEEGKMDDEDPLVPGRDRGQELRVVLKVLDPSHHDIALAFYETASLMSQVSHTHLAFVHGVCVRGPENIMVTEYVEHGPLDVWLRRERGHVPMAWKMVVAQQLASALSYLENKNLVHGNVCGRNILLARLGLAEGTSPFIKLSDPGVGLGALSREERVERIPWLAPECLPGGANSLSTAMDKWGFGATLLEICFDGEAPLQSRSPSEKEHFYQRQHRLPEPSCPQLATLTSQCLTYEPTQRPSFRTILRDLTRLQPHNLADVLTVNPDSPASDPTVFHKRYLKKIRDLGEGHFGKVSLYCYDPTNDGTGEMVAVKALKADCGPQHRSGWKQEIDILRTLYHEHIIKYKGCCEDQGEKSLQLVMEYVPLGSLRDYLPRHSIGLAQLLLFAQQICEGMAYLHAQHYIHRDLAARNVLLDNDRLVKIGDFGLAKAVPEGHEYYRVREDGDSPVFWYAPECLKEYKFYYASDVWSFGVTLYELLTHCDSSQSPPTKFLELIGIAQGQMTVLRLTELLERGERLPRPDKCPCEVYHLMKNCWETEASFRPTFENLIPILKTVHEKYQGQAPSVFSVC
Summary of the method: as §1

[3] = IL-2 stimulated pSTAT5, Tall-1 T cells
[4] = selectivity JAK3 over JAK1, difference of pKi
[5] = selectivity: difference of pKi JAK3 and pKi JAK1
[6] = IL-2 stimulated pSTAT5 in Tall-1 T cells

T1 sequence (P23458 whole entry): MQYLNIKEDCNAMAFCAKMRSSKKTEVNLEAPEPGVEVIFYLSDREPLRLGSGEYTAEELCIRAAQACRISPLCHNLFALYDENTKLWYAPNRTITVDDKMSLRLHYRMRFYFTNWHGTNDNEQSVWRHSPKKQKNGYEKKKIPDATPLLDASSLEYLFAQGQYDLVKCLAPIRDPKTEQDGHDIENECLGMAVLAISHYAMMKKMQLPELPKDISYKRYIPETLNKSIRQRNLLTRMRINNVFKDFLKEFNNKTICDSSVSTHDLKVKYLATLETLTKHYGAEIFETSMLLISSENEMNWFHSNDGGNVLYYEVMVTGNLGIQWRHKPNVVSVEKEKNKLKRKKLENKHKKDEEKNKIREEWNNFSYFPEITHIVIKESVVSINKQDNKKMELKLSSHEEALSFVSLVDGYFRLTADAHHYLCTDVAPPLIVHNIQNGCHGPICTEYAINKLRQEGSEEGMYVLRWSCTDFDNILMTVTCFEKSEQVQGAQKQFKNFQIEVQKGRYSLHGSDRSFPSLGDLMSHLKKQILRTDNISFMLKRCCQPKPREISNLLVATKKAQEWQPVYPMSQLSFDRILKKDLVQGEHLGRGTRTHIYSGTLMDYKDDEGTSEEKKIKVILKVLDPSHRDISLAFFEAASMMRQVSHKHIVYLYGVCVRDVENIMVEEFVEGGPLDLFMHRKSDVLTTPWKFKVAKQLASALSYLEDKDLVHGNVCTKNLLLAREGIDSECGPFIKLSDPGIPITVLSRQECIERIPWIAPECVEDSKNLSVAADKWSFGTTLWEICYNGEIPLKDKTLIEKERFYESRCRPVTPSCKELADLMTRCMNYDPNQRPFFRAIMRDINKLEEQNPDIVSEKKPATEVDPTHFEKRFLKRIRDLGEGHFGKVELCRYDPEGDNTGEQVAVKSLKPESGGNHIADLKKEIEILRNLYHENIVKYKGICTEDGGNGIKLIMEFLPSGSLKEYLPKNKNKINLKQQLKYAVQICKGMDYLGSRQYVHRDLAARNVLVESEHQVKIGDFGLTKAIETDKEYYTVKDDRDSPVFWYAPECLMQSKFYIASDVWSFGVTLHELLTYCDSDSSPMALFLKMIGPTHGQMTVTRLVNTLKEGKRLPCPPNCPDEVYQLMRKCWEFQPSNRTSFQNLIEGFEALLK

SMILES	JAK 1 (pKi) (JAK1)	Tall-1 (pIC50) [1, 3]	combined stool score endpoint as compared with vehicle treated animals ([2]; 3 mg/kg (PO, BID))	JAK 2 (pKi) (JAK2)	JAK 3 (pKi) (JAK3)	JAK3 (pKi)-JAK1 (pKi) (JAK3; [4])	Tyk 2 (pKi) (Tyk2)	Ki (JAK1)	IC50 [1]	combined stool score endpoint as compared with vehicle treated animals ([2]; 1 and 10 mg/kg only (PO, BID))	Ki (JAK2)	Ki (JAK3)	JAK3 (pKi)-JAK1 (pKi) (JAK3; [5])	Ki (Tyk2)	Tall-1 (pIC50) [1, 6]
C=CC(=O)N1CC2(CC(Oc3cc(-c4ccc(O)c(Cl)c4)cc4[nH]ncc34)C2)C1 [Compound 15-1]	E (a pKi value of 7 or below (Ki of 100 nM or above))	A (a pIC50 value≥7.5 (IC50≤32 nM))	statistically significant decrease	E (a pKi value of 7 or below (Ki of 100 nM or above))	B (a pKi value between 9 and 10 (Ki between 1 nM and 0.1 nM))	A (a value of 3 or above)	E (a pKi value of 7 or below (Ki of 100 nM or above))								
COC1(COc2cc(-c3ccc(O)c(F)c3)cc3[nH]ncc23)CN(C(=O)/C=C/CN(C)C)C1 [Compound 3-74]								> 100 nM	< 31.6 nM	statistically significant decrease	> 100 nM	< 0.1 nM	A (a value of 3 or above)	> 100 nM	
C=CC(=O)N1CC(C)(COc2nc(-c3ccc(O)cc3)nc3[nH]ncc23)C1 [Compound 3-57]	E (a pKi value of 7 or below (Ki of 100 nM or above))		statistically significant decrease	E (a pKi value of 7 or below (Ki of 100 nM or above))	A (a pKi value≥10 (Ki≤0.1 nM))		E (a pKi value of 7 or below (Ki of 100 nM or above))						A (a value of 3 or above)		B (a pIC50 value between 6.7 (included) and 7.5 (IC50 between 200 nM and 32 nM))
COC1(COc2cc(-c3ccc(O)c(Cl)c3)cc3[nH]ncc23)CN(C(=O)/C=C/CN(C)C)C1 [Compound 3-72]			statistically significant decrease					> 100 nM	< 31.6 nM		> 100 nM	0.1 to 1 nM	A (a value of 3 or above)	> 100 nM	
CN(C)C/C=C/C(=O)N1CC(Oc2cc(-c3ccc(O)cc3)cc3[nH]ncc23)(C(F)F)C1 [Compound 5-10]	E (a pKi value of 7 or below (Ki of 100 nM or above))		statistically significant decrease		B (a pKi value between 9 and 10 (Ki between 1 nM and 0.1 nM))								A (a value of 3 or above)		B (a pIC50 value between 6.7 (included) and 7.5 (IC50 between 200 nM and 32 nM))
C=CC(=O)N1CC2(CC(Oc3nc(-c4ccc(O)cc4)nc4[nH]ncc34)C2)C1 [Compound 15-3]	E (a pKi value of 7 or below (Ki of 100 nM or above))	A (a pIC50 value≥7.5 (IC50≤32 nM))	statistically significant decrease	E (a pKi value of 7 or below (Ki of 100 nM or above))	A (a pKi value≥10 (Ki≤0.1 nM))	A (a value of 3 or above)	E (a pKi value of 7 or below (Ki of 100 nM or above))								
C=CC(=O)N1CCO[C@@H](C(=O)Nc2cc(-c3ccc(O)c(Cl)c3)nc3[nH]ncc23)C1 [Compound 13-22]	E (a pKi value of 7 or below (Ki of 100 nM or above))	B (a pIC50 value between 6.7 (included) and 7.5 (IC50 between 200 nM and 32 nM))		E (a pKi value of 7 or below (Ki of 100 nM or above))	B (a pKi value between 9 and 10 (Ki between 1 nM and 0.1 nM))	A (a value of 3 or above)	E (a pKi value of 7 or below (Ki of 100 nM or above))								
C=CC(=O)N1C2CCC1CC(Oc1cc(-c3ccc(O)c(Cl)c3)cc3[nH]ncc13)C2 (stereo not shown) [Compound 10-4]	E (a pKi value of 7 or below (Ki of 100 nM or above))	B (a pIC50 value between 6.7 (included) and 7.5 (IC50 between 200 nM and 32 nM))		D (a pKi value between 7 and 8 (Ki between 100 nM and 10 nM))	B (a pKi value between 9 and 10 (Ki between 1 nM and 0.1 nM))	A (a value of 3 or above)	E (a pKi value of 7 or below (Ki of 100 nM or above))								
